Reference: ChEMBL document CHEMBL5252606, “Isolation and Characterization of Anti-Mycobacterial Natural Products from a Petrosia sp. Marine Sponge” (J Nat Prod, 2023)
≈ marks a conversion by molar mass, not a printed value. Calls of active or inactive are those of the source. The calls are words filed in the database; no cut-off is given here.

Tests used:
[1] = test system: Mycobacterium tuberculosis; experiment: Antitubercular activity against Mycobacterium tuberculosis expressing luxCDABE operon assessed as inhibition of bacterial growth under hypoxic conditions by low oxygen recovery assay; format: functional
[2] = test system: Mycobacterium tuberculosis; experiment: Antitubercular activity against Mycobacterium tuberculosis H37Rv assessed as inhibition of bacterial growth by alamar blue assay; format: functional
Mycobacterium avium = experiment: Antitubercular activity against Mycobacterium avium ATCC 15769 assessed as inhibition of bacterial growth incubated for 24 hrs by resazurin based fluorescence assay; format: functional, organism-based
[3] = Cytotoxicity against African green monkey Vero cells assessed as inhibition of cell growth incubated for 3 days by resazurin based fluorescence assay; format: toxicity; conditions: African green monkey (Chlorocebus sabaeus)
[4] = test system: Mycobacteroides abscessus; experiment: Antitubercular activity against Mycobacterium abscessus ATCC 19977 assessed as inhibition of bacterial growth incubated for 4 hrs by resazurin based fluorescence assay; format: functional, organism-based
MCF7 = experiment: Cytotoxicity against human MCF7 cells; format: functional, cell-based
A549 = experiment: Cytotoxicity against human A549 cells; format: functional, cell-based
P388 = experiment: Cytotoxicity against mouse P388 cells; format: functional, cell-based
HCT-8 = experiment: Cytotoxicity against human HCT-8 cells; format: functional, cell-based
HeLa = experiment: Cytotoxicity against human HeLa cells; format: functional, cell-based
[5] = test system: Mycobacterium tuberculosis; experiment: Antitubercular activity against Mycobacterium tuberculosis H37Rv assessed as inhibition of bacterial growth at 25 ug/ml by alamar blue assay; format: functional, organism-based; conditions: dose 25.0 µg/ml

| SMILES | MIC [1] [µM] | MIC [2] [µM] | Activity [5] | other results |
| --- | --- | --- | --- | --- |
| O=[N+]([O-])c1cn2c(n1)OC[C@@H](OCc1ccc(OC(F)(F)F)cc1)C2 [PRETOMANID] | 2 (≈ 0.719 µg/mL) | 0.2 (≈ 0.0719 µg/mL) | – | – |
| CC(=O)NC[C@H]1CN(c2ccc(N3CCOCC3)c(F)c2)C(=O)O1 [LINEZOLID] | 1.7 (≈ 0.573 µg/mL) | 1 (≈ 0.337 µg/mL) | – | – |
| C#CC(O)/C=C/CCCCCCCCC/C=C\CCCCCCCCC/C=C/C(O)C#C (configuration not stated) | 1 (≈ 0.441 µg/mL) | 1.4 (≈ 0.617 µg/mL) | – | Activity (Mycobacterium avium): inactive; IC50 at 3 days [3]: 400 nM; Activity [4]: inactive; IC50 (MCF7): 200 nM; IC50 (A549): 200 nM; IC50 (P388): 200 nM; IC50 (HCT-8): 200 nM; IC50 (HeLa): 200 nM |
| COc1nc2ccc(Br)cc2cc1[C@@H](c1ccccc1)[C@@](O)(CCN(C)C)c1cccc2ccccc12 [BEDAQUILINE] | 0.1 (≈ 0.0556 µg/mL) | 0.03 (≈ 0.0167 µg/mL) | – | – |
| COc1ccc2c(c1)C[C@H]1[C@]3(C)CC[C@@H]4[C@](C)(CCC[C@]4(C)C(=O)O)[C@H]3CC[C@]1(C)O2 | – | – | inactive | – |
| COc1ccc2c(c1)C[C@H]1[C@]3(C)CC[C@H]4[C@@]5(C)CCC[C@]4(CO[C@@H]5O)[C@H]3CC[C@]1(C)O2 | – | – | inactive | – |
| COc1ccc2c(c1)C[C@H]1[C@]3(C)CC[C@@H]4[C@]5(CCC[C@@]4(C)C(=O)OC5)[C@H]3CC[C@]1(C)O2 | – | – | inactive | – |
| NNC(=O)c1ccncc1 [ISONIAZID] | > 128 | 0.2 (≈ 0.0274 µg/mL) | – | – |
| CCO[C@@H]1OC[C@]23CCC[C@]1(C)[C@@H]2CC[C@]1(C)[C@@H]3CC[C@]2(C)Oc3ccc(OC)cc3C[C@@H]12 | – | – | inactive | – |
| COc1ccc2c(c1)C[C@H]1[C@]3(C)CC[C@H]4[C@@]5(C)CCC[C@]4(CO[C@H]5O)[C@H]3CC[C@]1(C)O2 | – | – | inactive | – |
| C[C@]12CCC[C@](C)(C(=O)O)[C@@H]1CC[C@]1(C)[C@@H]2CC[C@]2(C)Oc3ccc(O)cc3C[C@@H]12 | – | – | inactive | – |
| CO[C@H]1/C=C/O[C@@]2(C)Oc3c(C)c(O)c4c(O)c(c(/C=N/N5CCN(C)CC5)c(O)c4c3C2=O)NC(=O)/C(C)=C\C=C\[C@H](C)[C@H](O)[C@@H](C)[C@@H](O)[C@@H](C)[C@H](OC(C)=O)[C@@H]1C [RIFAMPIN] | 0.09 (≈ 0.0741 µg/mL) | 0.04 (≈ 0.0329 µg/mL) | – | – |
| C[C@]12CCC[C@](C)(C=O)[C@@H]1CC[C@]1(C)[C@@H]2CC[C@]2(C)Oc3ccc(O)cc3C[C@@H]12 | – | – | inactive | – |
